Test results: patent US20180243327A1, “USE OF SECOISOLARICIRESINOL DIGLUCOSIDES (SDGs) AND RELATED COMPOUNDS FOR PROTECTION AGAINST RADIATION DAMAGE” (THE TRUSTEES OF THE UNIVERSITY OF PENNSYLVANIA, priority 2015, published 2018)

How the values were obtained:
[1] = tested on: human precision-cut lung slices (huPCLS); assay: Senescence marker protein levels (Western Blot of whole tissue lysates) in huPCLS treated with proton; type: cell-based; conditions: proton radiation, 50 Mm LGM2605 given 4 hours prior
Method: (§1) FIG. 2: Novel Ex vivo model of human lung: human precision-cut lung slices for radiation exposure. Human Precision-cut slice preparation: Slices (huPCLS) were obtained by inflating the donor human lung with low melting temperature agarose, sectioning, coring, and slicing, as shown above. The 350 μm thick slices were washed three times with culture medium to rid airways of agarose and are viable at 37 °C, up to a week.
(§2) FIG. 6: LGM2605 decreases Proton Radiation-induced Senescence Markers, both at the Gene and Protein Level, in huPCLS. […] Transcript levels of tested genes are normalized to 18S rRNA.*p<0.05.
(§3) Methods: Since the testing of our hypothesis in human tissues is critical and cannot be mechanistically pursued in patients, we pursued a novel approach, using an ex vivo model of human normal lung precision-cut sections (huPCLS), used for the first time to our knowledge, in radiation studies. The huPCLS consist of all relevant cell types of the respiratory tract, situated in their microanatomical environment, validated for pharmacological testing. Human lung sections were exposed to 4 Gy proton radiation in the presence of 0 and 50 Mm LGM2605, given 4 hours prior to exposure. Tissues were evaluated 30 min and 24 hours post irradiation for gene expression, protein level changes, and betagalactosidase activity, relevant to inflammation, oxidative stress and senescence.

[2] = tested on: human precision-cut lung slices (huPCLS); assay: Senescence marker gene levels (qPCR) in huPCLS after 4 Gy proton radiation; type: cell-based; conditions: 50 Mm LGM2605 given 4 hours prior, 30 min and 24 hours post irradiation
Method: as §1, §2, §3

[3] = tested on: human precision-cut lung slices (huPCLS); assay: SA-β-Gal staining of huPCLS post proton radiation; type: cell-based; conditions: 24 hour post proton radiation, 50 Mm LGM2605 given 4 hours prior
Method: as §1
FIG. 5: LGM2605 reduces senescent-like phenotype of huPCLS. […] A) SA-β-Gal staining of huPCLS at 24 hour post proton radiation. B) Quantification of the β-gal positive stained cells. Percentage change of the β-gal positive cells of the irradiated huPCLS compared to the nonirradiated huPCLS.
as §3, with “Human lung sections were exposed to 4 Gy proton radiation in the presence of 0 and 50 Mm LGM2605, given 4 hours prior to exposure.” left out

[4] = tested on: human precision-cut lung slices (huPCLS); assay: Proinflammatory cytokine gene levels (qPCR) in huPCLS after 4 Gy proton radiation; type: cell-based; conditions: 50 Mm LGM2605 given 4 hours prior, 30 min and 24 hours post irradiation, normalized to 18S rRNA
Method: as §1
FIG. 3: Evaluation of inflammatory markers, in huPCLS, at 30 min and 24 hours post 4 Gy proton radiation with or without SDG pre-treatment for 4 hours. Transcript levels of (A) IL1B, (B) IL6 and (C) TNF-alpha are normalized to 18S rRNA. *p<0.05.
as §3

[5] = Antioxidant and free radical scavenging characteristics
Description: FIG. 1. Bioactive polyphenolic plant lignans in flaxseed and radiation Damage. Secoisolariciresinol diglucoside (SDG) is the major lignan phenolic in flaxseed. Due to complex SDG extraction, purification and enrichment methods from natural resources, SDG was chemically synthesized. […] (B) The structure of SDG.

[6] = tested on: human precision-cut lung slices (huPCLS); assay: Antioxidant gene levels (qPCR) in huPCLS after 4 Gy proton radiation; type: cell-based; conditions: 50 Mm LGM2605 given 4 hours prior, 30 min and 24 hours post irradiation, normalized to 18S rRNA
Method: as §1
FIG. 4: qPCR analysis of (A) HMOX-1 and (B) NQO1 in huPCLS after 30 min and 24 hours post 4 Gy proton radiation with or without SDG pretreatment for 4 hours. Data are represented as average fold change from non-irradiated control±SEM. Transcript levels of tested genes are normalized to 18S rRNA. *p<0.05.
as §3, with “Human lung sections were exposed to 4 Gy proton radiation in the presence of 0 and 50 Mm LGM2605, given 4 hours prior to exposure.” left out

[7] = Activity of synthetic SDG compared with natural SDG; conditions: synthetic vs natural counterpart
Description: Using a mouse model of proton radiation exposure, we have identified dose-dependent pathophysiological changes in the lung. […] Thus, we further hypothesize that LGM2605 will be effective against proton-induced pulmonary damage, such as inflammation, oxidative stress and senescence.

SMILES: COc1cc(C[C@@H](CO[C@@H]2O[C@H](CO)[C@@H](O)[C@H](O)[C@H]2O)[C@H](CO[C@@H]2O[C@H](CO)[C@@H](O)[C@H](O)[C@H]2O)Cc2ccc(O)c(OC)c2)ccc1O [LGM2605, secoisolariciresinol diglucoside]
- p16 senescent marker protein level [1]: reduces
- p53 senescent marker protein level [1]: reduces
- CDKN2A senescent marker gene level [2]: reduces
- TP53 senescent marker gene level [2]: reduces
- senescent-like phenotype (SA-β-galactosidase positive staining) [3]: protects huPCLS from a senescent-like phenotype
- IL-1β (IL1B) inflammatory marker gene level [4]: reduction
- IL-6 (IL6) inflammatory marker gene level [4]: reduction
- TNFα inflammatory marker gene level [4]: reduction
- antioxidant and free radical scavenging characteristics [5]: strong antioxidant and free radical, scavenging characteristics
- antioxidant HO (HMOX-1) gene level [6]: increase
- antioxidant NQO1 gene level [6]: increase
- activity relative to natural SDG [7]: equipotent activity with its natural counterpart
